# Results from publication PMC8026324, “In Vitro Antiplasmodial, Heme Polymerization, and Cytotoxicity of Hydroxyxanthone Derivatives” (Journal of Tropical Medicine, 2021).
# Key:
# [1] = test system: Plasmodium falciparum 3D-7 (chloroquine-sensitive strain); assay: In vitro antiplasmodial activity assay, microscopic method, strain 3D-7; type: cell-based; details: for IC50: 72 hours incubation, microscopic method, read-out: IC50 on P. falciparum 3D-7; for antiplasmodial activity category on P. falciparum 3D-7: category by IC50
# Protocol: (§1) The test of antiplasmodial activity began with the culture of P. falciparum 3D-7 and FCR-3 using the modified Trager and Jensen method. The plasmodium was cultured in human O red blood cells diluted to 3% haematocrit in RPMI 1640 medium complemented with 10% human O serum. The medium was made by adding 10.43 g of powder RPMI 1640, 6 g HEPES, 2 g NaHCO3, 25 mg gentamycin, and sterile distilled water up to 1 L. The medium pH was adjusted so that it reached ±7.2. It was sterilized using a 0.22 μm filter and stored at 4°C. The complete plasmodium culture medium was made by adding human serum with a concentration of 10% in the medium. The plasmodium culture was incubated in candle jar in an incubator with a temperature of 37°C and was observed every 24 hours.
# (§2) The plasmodium was synchronized to obtain the ring stage by adding 5% of D-sorbitol. The plasmodium was transferred from culture flask to a conical tube, and then it was centrifuged with a speed of 1000 rpm for 10 minutes. After the supernatant was disposed, the sterile 5% sorbitol was added and incubated for 10 minutes at a temperature of 37°C. The plasmodium suspension was centrifuged again; the supernatant was disposed and the plasmodium was washed by adding culture medium. Then, the plasmodium suspension was centrifuged again, and the supernatant was discarded, resulting in a plasmodium in ring stage only. The parasitemia was calculated from a thin blood preparation. The test used 1% parasitemia at 2% haematocrit in RPMI medium which complemented with 10% human O serum.
# (§3) Each testing compound was dissolved in RPMI medium. The testing compound in various concentrations with volume of 100 μL was incorporated into the 96-well microplate, and then 100 μL of Plasmodium suspension was added. Each series of concentrations was replicated three times. The microplate was incubated at a temperature of 37°C for 72 hours. At the end of the incubation, a thin blood smear was made using 10% Giemsa stain and observed under a light microscope at 1000x magnification. The percentage of parasitemia (counting a minimum of 1,000 erythrocytes) was calculated from the preparation of thin blood and then used to calculate the percentage of plasmodium growth inhibition. […] Antiplasmodial activity is expressed as IC50, which is the concentration of a compound that is required for 50% inhibition of plasmodium growth. The IC50 value was calculated by probit analysis using SPSS software (IBM Corp., Chicago). The lower the IC50 value obtained, the greater the antiplasmodial activity.
# [2] = test system: Plasmodium falciparum FCR-3 (chloroquine-resistant strain); assay: In vitro antiplasmodial activity assay, microscopic method, strain FCR-3; type: cell-based; details: for IC50: 72 hours incubation, microscopic method, read-out: IC50 on P. falciparum FCR-3; for antiplasmodial activity category on P. falciparum FCR-3: category by IC50
# Protocol: as §1, §2, §3
# Vero cells = assay: In vitro cytotoxicity test, MTT assay on Vero cell line; type: cell-based; details: for IC50: MTT assay; for Selectivity index 3D-7: ratio IC50 on Vero cell/IC50 on P. falciparum 3D-7; for Selectivity index FCR-3: ratio IC50 on Vero cell/IC50 on P. falciparum FCR-3
# Protocol: The in vitro cytotoxicity test was conducted using the 3-(4,5-dimethylthiazol-2-yl)2,5-diphenyltetrazolium bromide (MTT) assay method on Vero cell line culture using the Anderson et al.'s modified method.
# The cell was removed from the cryo medium. Then, the cell was thawed at 37°C. The liquid cell was subsequently transferred to the tube and a culture medium was added to a volume of 10 mL. Then, the suspension was centrifuged for 15 minutes so that it would form cell pellets. The supernatant was removed and 1 mL of culture medium was added to the cell pellets. Finally, the suspension was transferred to the Petri dish and incubated in the incubator with 5% of CO2 at 37°C.
# The medium of Vero cell culture was removed, and then the cell was washed using a PBS solution with a volume of PBS ± 1/2 of the initial medium volume. This step was done twice and 1 mL of trypsin 0.25% was added. Subsequently, the cell was incubated in the CO2 incubator at 37°C for 3 minutes. Then, the cell was resuspended using 2 mL of culture medium and PBS solution was added up to 10 mL. The suspension was centrifuged for 15 minutes so that it formed pellets. Pellets were added with 1 mL of culture medium and resuspended. Take 10 μL of the cell suspension and density of cells was calculated.
# Then, the cell was added with culture medium to 10 mL. A total of 100 μL of such suspensions was transferred into each well of the 96-well microplate, but three of the wells were emptied as medium controls. Subsequently, the microplate was incubated in a 5% CO2 incubator at 37°C.
# Each hydroxyxanthone derivative compound was dissolved in DMSO, and a variety of concentrations were prepared in the medium. Each concentration of the testing compound was added into the 96-well microplate triplicately. Cell control and medium control were not given a testing compound solution. The medium control remained blank, while the cell control contained culture medium only. […] Then, the cell was incubated in a 5% CO2 incubator at 37°C for 24 hours.
# After the cell was incubated for 24 hours, the medium was discarded and washed with PBS. Then, each well was added with 100 μL of 5 mg/mL of MTT solution. The 96-well microplate was incubated again in the incubator of CO2 at 37°C for 4 hours. Then, 100 μL of 10% of SDS in 0.01 MHCl was added. The cells were placed in a dark room at room temperature for 24 hours.
# The absorbance was measured using the enzyme-linked immunosorbent assay (ELISA) reader at 595 nm wavelength. The cytotoxicity test on the Vero cells was done by calculating the percentage of Vero cell inhibition of the absorption value of the test compound, cell control, and medium control. The cytotoxic effect was expressed as IC50. The IC50 value was obtained from the probit analysis by using SPSS software (IBM Corp., Chicago). The degree of selectivity was expressed as a selectivity index. The selectivity index was obtained from the ratio between the IC50 cytotoxic effect on Vero cells and IC50 antiplasmodial activity on Plasmodium. A compound is said to be safe if the value of the selectivity index is >10 [20].
# MCF-7 = test system: MCF-7; parameters: method as in earlier work; details: cited from earlier work
# WIDR = test system: WIDR; parameters: method as in earlier work; details: cited from earlier work
# Hela = test system: Hela; parameters: method as in earlier work; details: cited from earlier work
# [3] = Chlorocebus sabaeus, Vero, 24 h, 24 hours incubation
compound,measurement,setting,value
"O=c1c2ccc(O)cc2oc2cccc(O)c12 [HX2, 1,6-dihydroxyxanthone]",inhibition at 54.78 µM,"[1]; Plasmodium falciparum, 54.78 μM, read-out: Growth inhibition of P. falciparum Strain 3D-7",49.2 ± 1.61%
same,inhibition at 109.55 µM,"[1]; Plasmodium falciparum, 109.55 μM, read-out: Growth inhibition of P. falciparum Strain 3D-7",54.8 ± 2.43%
same,inhibition at 219.11 µM,"[1]; Plasmodium falciparum, 219.11 μM, read-out: Growth inhibition of P. falciparum Strain 3D-7",67.16 ± 0.601%
same,inhibition at 438.21 µM,"[1]; Plasmodium falciparum, 438.21 μM, read-out: Growth inhibition of P. falciparum Strain 3D-7",73.62 ± 0.713%
same,inhibition at 876.42 µM,"[1]; Plasmodium falciparum, 876.42 μM, read-out: Growth inhibition of P. falciparum Strain 3D-7",90.56 ± 0.665%
same,IC50,[1]; Plasmodium falciparum,71.78 ± 0.31 µM
same,antiplasmodial activity category on P. falciparum 3D-7,[1],moderate (moderate (IC50 20–100 μM))
same,inhibition at 54.78 µM,"[2]; Plasmodium falciparum, FCR3, 54.78 μM, read-out: Growth inhibition of P. falciparum Strain FCR-3",47.2 ± 0.687%
same,inhibition at 109.55 µM,"[2]; Plasmodium falciparum, FCR3, 109.55 μM, read-out: Growth inhibition of P. falciparum Strain FCR-3",50.2 ± 2.63%
same,inhibition at 219.11 µM,"[2]; Plasmodium falciparum, FCR3, 219.11 μM, read-out: Growth inhibition of P. falciparum Strain FCR-3",67.1 ± 2.76%
same,inhibition at 438.21 µM,"[2]; Plasmodium falciparum, FCR3, 438.21 μM, read-out: Growth inhibition of P. falciparum Strain FCR-3",74.2 ± 1.32%
same,inhibition at 876.42 µM,"[2]; Plasmodium falciparum, FCR3, 876.42 μM, read-out: Growth inhibition of P. falciparum Strain FCR-3",87.6 ± 2.24%
same,IC50,"[2]; Plasmodium falciparum, FCR3",81.8 ± 5.78 µM
same,antiplasmodial activity category on P. falciparum FCR-3,[2],moderate (moderate (IC50 20–100 μM))
same,IC50,Vero cells; 24 hours incubation,308 µM
same,IC50,Vero cells; [3],390 µM
same,inhibition at 54.13 µM,"Vero cells; Chlorocebus sabaeus, Vero, 24 h, 54.13 μM, read-out: Vero cell growth inhibition after 24 hours incubation",15.6%
same,inhibition at 108.26 µM,"Vero cells; Chlorocebus sabaeus, Vero, 24 h, 108.26 μM, read-out: Vero cell growth inhibition after 24 hours incubation",31.8%
same,inhibition at 216.86 µM,"Vero cells; Chlorocebus sabaeus, Vero, 24 h, 216.86 μM, read-out: Vero cell growth inhibition after 24 hours incubation",38.9%
same,inhibition at 433.73 µM,"Vero cells; Chlorocebus sabaeus, Vero, 24 h, 433.73 μM, read-out: Vero cell growth inhibition after 24 hours incubation",59.8%
same,inhibition at 867.45 µM,"Vero cells; Chlorocebus sabaeus, Vero, 24 h, 867.45 μM, read-out: Vero cell growth inhibition after 24 hours incubation",67%
same,inhibition at 1734.91 µM,"Vero cells; Chlorocebus sabaeus, Vero, 24 h, 1734.91 μM, read-out: Vero cell growth inhibition after 24 hours incubation",86.1%
same,IC50,"Vero cells; Chlorocebus sabaeus, Vero",88.9 µg/mL
same,Selectivity index 3D-7,Vero cells,4.30
same,Selectivity index FCR-3,Vero cells,3.77
same,cytotoxicity on MCF-7 (in words),MCF-7,weak
same,cytotoxicity on WIDR (in words),WIDR,weak
same,cytotoxicity on Hela (in words),Hela,weak
"O=c1c2cccc(Cl)c2oc2cccc(O)c12 [HX4, 1-hydroxy-5-chloroxanthone]",inhibition at 50.68 µM,"[1]; Plasmodium falciparum, 50.68 μM, read-out: Growth inhibition of P. falciparum Strain 3D-7",46.5 ± 0.8%
same,inhibition at 101.36 µM,"[1]; Plasmodium falciparum, 101.36 μM, read-out: Growth inhibition of P. falciparum Strain 3D-7",50.96 ± 0.361%
same,inhibition at 202.71 µM,"[1]; Plasmodium falciparum, 202.71 μM, read-out: Growth inhibition of P. falciparum Strain 3D-7",57.1 ± 1.57%
same,inhibition at 405.43 µM,"[1]; Plasmodium falciparum, 405.43 μM, read-out: Growth inhibition of P. falciparum Strain 3D-7",64.51 ± 0.418%
same,inhibition at 810.86 µM,"[1]; Plasmodium falciparum, 810.86 μM, read-out: Growth inhibition of P. falciparum Strain 3D-7",74 ± 0.923%
same,IC50,[1]; Plasmodium falciparum,85.3 ± 4.87 µM
same,antiplasmodial activity category on P. falciparum 3D-7,[1],moderate (moderate (IC50 20–100 μM))
same,inhibition at 50.68 µM,"[2]; Plasmodium falciparum, FCR3, 50.68 μM, read-out: Growth inhibition of P. falciparum Strain FCR-3",47.4 ± 0.736%
same,inhibition at 101.36 µM,"[2]; Plasmodium falciparum, FCR3, 101.36 μM, read-out: Growth inhibition of P. falciparum Strain FCR-3",49.8 ± 3.36%
same,inhibition at 202.71 µM,"[2]; Plasmodium falciparum, FCR3, 202.71 μM, read-out: Growth inhibition of P. falciparum Strain FCR-3",56.4 ± 3.79%
same,inhibition at 405.43 µM,"[2]; Plasmodium falciparum, FCR3, 405.43 μM, read-out: Growth inhibition of P. falciparum Strain FCR-3",61.2 ± 3.02%
same,inhibition at 810.86 µM,"[2]; Plasmodium falciparum, FCR3, 810.86 μM, read-out: Growth inhibition of P. falciparum Strain FCR-3",72.9 ± 1.34%
same,IC50,"[2]; Plasmodium falciparum, FCR3",89.9 ± 7.69 µM
same,antiplasmodial activity category on P. falciparum FCR-3,[2],moderate (moderate (IC50 20–100 μM))
same,IC50,Vero cells; 24 hours incubation,331 µM
same,IC50,Vero cells; [3],335 µM
same,inhibition at 63.25 µM,"Vero cells; Chlorocebus sabaeus, Vero, 24 h, 63.25 μM, read-out: Vero cell growth inhibition after 24 hours incubation",19%
same,inhibition at 126.49 µM,"Vero cells; Chlorocebus sabaeus, Vero, 24 h, 126.49 μM, read-out: Vero cell growth inhibition after 24 hours incubation",32.5%
same,inhibition at 253.39 µM,"Vero cells; Chlorocebus sabaeus, Vero, 24 h, 253.39 μM, read-out: Vero cell growth inhibition after 24 hours incubation",43.2%
same,inhibition at 506.78 µM,"Vero cells; Chlorocebus sabaeus, Vero, 24 h, 506.78 μM, read-out: Vero cell growth inhibition after 24 hours incubation",54.4%
same,inhibition at 1013.57 µM,"Vero cells; Chlorocebus sabaeus, Vero, 24 h, 1013.57 μM, read-out: Vero cell growth inhibition after 24 hours incubation",68.9%
same,inhibition at 2027.14 µM,"Vero cells; Chlorocebus sabaeus, Vero, 24 h, 2027.14 μM, read-out: Vero cell growth inhibition after 24 hours incubation",90%
same,IC50,"Vero cells; Chlorocebus sabaeus, Vero",82.6 µg/mL
same,Selectivity index 3D-7,Vero cells,3.88
same,Selectivity index FCR-3,Vero cells,3.68
same,cytotoxicity on MCF-7 (in words),MCF-7,weak
same,cytotoxicity on WIDR (in words),WIDR,weak
same,cytotoxicity on Hela (in words),Hela,weak
